Laboratory results as given in ChEMBL document CHEMBL1201862, “PubChem BioAssay data set” (2004).
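In this assay, cells in 96-well plates receive the compound at five concentrations for 48 hours. Endpoints are linearly interpolated between the surrounding concentrations. Abbreviation: GI50, concentration required for 50% inhibition of growth.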 Active and inactive are the calls of the source. Cut-off read from the data, not from the text of the source: active = GI50 up to about 1.1 µM and inactive = higher.

Assays:
Assay in all cases: DTP human tumour cell line panel, 48 h
HL-60 = test system: HL-60
HCT-15 = test system: HCT-15
HCT-116 = test system: HCT-116
NCI-H522 = test system: NCI-H522
HOP-92 = test system: HOP-92
LOX IMVI = test system: LOX IMVI
UACC-257 = test system: UACC-257
EKVX = test system: EKVX
NCI-H460 = test system: NCI-H460
BT-549 = test system: BT-549
MDA-MB-435 = test system: MDA-MB-435
DU-145 = test system: DU-145
KM12 = test system: KM12
CAKI-1 = test system: CAKI-1
U-251 = test system: U-251
HT-29 = test system: HT-29
Malme-3M = test system: Malme-3M
OVCAR-3 = test system: OVCAR-3
SF-268 = test system: SF-268
OVCAR-5 = test system: OVCAR-5
SNB-19 = test system: SNB-19
IGROV-1 = test system: IGROV-1
SR = test system: SR
A549 = test system: A549
Hs-578T = test system: Hs-578T
UACC-62 = test system: UACC-62
PC-3 = test system: PC-3
HCC 2998 = test system: HCC 2998
786-0 = test system: 786-0
A498 = test system: A498
RXF 393 = test system: RXF 393
SN12C = test system: SN12C
SK-MEL-5 = test system: SK-MEL-5
NCI/ADR-RES = test system: NCI/ADR-RES
MCF7 = test system: MCF7
COLO 205 = test system: COLO 205
SW-620 = test system: SW-620
ACHN = test system: ACHN
SK-MEL-28 = test system: SK-MEL-28
MDA-N = test system: MDA-N
RPMI-8226 = test system: RPMI-8226
CCRF-CEM = test system: CCRF-CEM
SF-295 = test system: SF-295
UO-31 = test system: UO-31
MOLT-4 = test system: MOLT-4
M14 = test system: M14
OVCAR-4 = test system: OVCAR-4
K562 = test system: K562
NCI-H23 = test system: NCI-H23
SF-539 = test system: SF-539
HOP-62 = test system: HOP-62
SK-MEL-2 = test system: SK-MEL-2
SNB-75 = test system: SNB-75
MDA-MB-231 = test system: MDA-MB-231
NCI-H226 = test system: NCI-H226
TK-10 = test system: TK-10
OVCAR-8 = test system: OVCAR-8
SK-OV-3 = test system: SK-OV-3

## NC1CNC(=O)c2cscc21 (configuration not stated)
HL-60
  GI50: > 100 µM (inactive)
HCT-15
  GI50: > 100 µM
HCT-116
  GI50: > 100 µM (inactive)
NCI-H522
  GI50: > 100 µM (inactive)
HOP-92
  GI50: > 100 µM (inactive)
LOX IMVI
  GI50: > 100 µM (inactive)
UACC-257
  GI50: > 100 µM (inactive)
EKVX
  GI50: > 100 µM (inactive)
NCI-H460
  GI50: > 100 µM (inactive)
BT-549
  GI50: > 100 µM (inactive)
MDA-MB-435
  GI50: > 100 µM (inactive)
DU-145
  GI50: > 100 µM (inactive)
KM12
  GI50: > 100 µM (inactive)
CAKI-1
  GI50: > 100 µM (inactive)
U-251
  GI50: > 100 µM (inactive)
HT-29
  GI50: > 100 µM (inactive)
Malme-3M
  GI50: > 100 µM (inactive)
OVCAR-3
  GI50: > 100 µM (inactive)
SF-268
  GI50: > 100 µM (inactive)
OVCAR-5
  GI50: > 100 µM (inactive)
SNB-19
  GI50: > 100 µM (inactive)
IGROV-1
  GI50: > 100 µM (inactive)
SR
  GI50: > 100 µM (inactive)
A549
  GI50: > 100 µM (inactive)
Hs-578T
  GI50: > 100 µM (inactive)
UACC-62
  GI50: > 100 µM (inactive)
PC-3
  GI50: 53.2 µM (inactive)
HCC 2998
  GI50: > 100 µM (inactive)
786-0
  GI50: > 100 µM (inactive)
A498
  GI50: > 100 µM (inactive)
RXF 393
  GI50: > 100 µM (inactive)
SN12C
  GI50: > 100 µM (inactive)
SK-MEL-5
  GI50: > 100 µM (inactive)
NCI/ADR-RES
  GI50: 3.01 µM (inactive)
MCF7
  GI50: > 100 µM (inactive)
COLO 205
  GI50: > 100 µM (inactive)
SW-620
  GI50: > 100 µM (inactive)
ACHN
  GI50: > 100 µM (inactive)
SK-MEL-28
  GI50: > 100 µM (inactive)
MDA-N
  GI50: > 100 µM (inactive)
RPMI-8226
  GI50: > 100 µM (inactive)
CCRF-CEM
  GI50: > 100 µM (inactive)
SF-295
  GI50: > 100 µM (inactive)
UO-31
  GI50: > 100 µM (inactive)
MOLT-4
  GI50: > 100 µM (inactive)
M14
  GI50: > 100 µM (inactive)
OVCAR-4
  GI50: > 100 µM (inactive)
K562
  GI50: > 100 µM (inactive)
NCI-H23
  GI50: > 100 µM (inactive)

## CCOc1ccccc1/C=C1\NC(=O)N(/C=C2\C(=O)Oc3ccccc3C2=O)C1=O
SF-539
  GI50: 78.5 µM (inactive)
HOP-62
  GI50: 53.1 µM (inactive)
HL-60
  GI50: 20.5 µM (inactive)
HCT-15
  GI50: 53.8 µM
HCT-116
  GI50: 39.1 µM (inactive)
NCI-H522
  GI50: 29.2 µM (inactive)
HOP-92
  GI50: 21 µM (inactive)
LOX IMVI
  GI50: 63.7 µM (inactive)
UACC-257
  GI50: 40.1 µM (inactive)
SK-MEL-2
  GI50: 45.9 µM (inactive)
EKVX
  GI50: 51.6 µM (inactive)
NCI-H460
  GI50: 39.4 µM (inactive)
BT-549
  GI50: 50.9 µM (inactive)
SNB-75
  GI50: 69.2 µM (inactive)
MDA-MB-435
  GI50: 42.6 µM (inactive)
DU-145
  GI50: 44.5 µM (inactive)
KM12
  GI50: 43 µM (inactive)
CAKI-1
  GI50: 99.1 µM (inactive)
U-251
  GI50: 47 µM (inactive)
HT-29
  GI50: 65.5 µM (inactive)
MDA-MB-231
  GI50: 44.6 µM (inactive)
OVCAR-3
  GI50: 30.8 µM (inactive)
SF-268
  GI50: > 100 µM (inactive)
OVCAR-5
  GI50: > 100 µM (inactive)
SNB-19
  GI50: 61.7 µM (inactive)
IGROV-1
  GI50: 35.7 µM (inactive)
A549
  GI50: 42.6 µM (inactive)
Hs-578T
  GI50: 46.7 µM (inactive)
UACC-62
  GI50: 32.8 µM (inactive)
PC-3
  GI50: 42.5 µM (inactive)
HCC 2998
  GI50: 74 µM (inactive)
786-0
  GI50: 50.9 µM (inactive)
RXF 393
  GI50: 9.82 µM (inactive)
SN12C
  GI50: 43.6 µM (inactive)
SK-MEL-5
  GI50: 23.9 µM (inactive)
NCI/ADR-RES
  GI50: 46 µM (inactive)
MCF7
  GI50: 46.2 µM (inactive)
COLO 205
  GI50: 47.4 µM (inactive)
SW-620
  GI50: 51.5 µM (inactive)
NCI-H226
  GI50: 35.5 µM (inactive)
ACHN
  GI50: 50.6 µM (inactive)
SK-MEL-28
  GI50: 62.4 µM (inactive)
MDA-N
  GI50: 42 µM (inactive)
TK-10
  GI50: 24.8 µM (inactive)
OVCAR-8
  GI50: 80.9 µM (inactive)
CCRF-CEM
  GI50: 24.2 µM (inactive)
SF-295
  GI50: 44.5 µM (inactive)
SK-OV-3
  GI50: 59.7 µM (inactive)
UO-31
  GI50: 23.1 µM (inactive)
MOLT-4
  GI50: 26.7 µM (inactive)
M14
  GI50: 51.4 µM (inactive)
OVCAR-4
  GI50: 44.2 µM (inactive)
NCI-H23
  GI50: 31.3 µM (inactive)
